Source: ChEMBL document CHEMBL1157641, “Carbonic anhydrase inhibitors. Inhibition of mammalian isoforms I-XIV with a series of natural product polyphenols and phenolic acids” (Bioorg Med Chem, 2010)
pKi: −log10 of the molar value.

Columns and labels:
[1] = biological target: Carbonic anhydrase 5A, mitochondrial (Homo sapiens, UniProt P35218)
Description: Inhibition of human CA5A by stopped-flow CO2 hydration assay

Carbonic anhydrase 9 = Carbonic anhydrase 9 (Homo sapiens, UniProt Q16790)
Description: Inhibition of human CA9 by stopped-flow CO2 hydration assay

Carbonic anhydrase 2 = Carbonic anhydrase 2 (Homo sapiens, UniProt P00918)
Description: Inhibition of human CA2 by stopped-flow CO2 hydration assay

Carbonic anhydrase 1 = Carbonic anhydrase 1 (Homo sapiens, UniProt P00915)
Description: Inhibition of human CA1 by stopped-flow CO2 hydration assay

Carbonic anhydrase 4 = Carbonic anhydrase 4 (Homo sapiens, UniProt P22748)
Description: Inhibition of human CA4 by stopped-flow CO2 hydration assay

Carbonic anhydrase 14 = Carbonic anhydrase 14 (Homo sapiens, UniProt Q9ULX7)
Description: Inhibition of human CA14 by stopped-flow CO2 hydration assay

Carbonic anhydrase 13 = Carbonic anhydrase 13 (Mus musculus, UniProt Q9D6N1)
Description: Inhibition of mouse CA13 by stopped-flow CO2 hydration assay

Carbonic anhydrase 6 = Carbonic anhydrase 6 (Homo sapiens, UniProt P23280)
Description: Inhibition of human CA6 by stopped-flow CO2 hydration assay

Carbonic anhydrase 3 = Carbonic anhydrase 3 (Homo sapiens, UniProt P07451)
Description: Inhibition of human CA3 by stopped-flow CO2 hydration assay

[2] = biological target: Carbonic anhydrase 5B, mitochondrial (Homo sapiens, UniProt Q9Y2D0)
Description: Inhibition of human CA5B by stopped-flow CO2 hydration assay

Carbonic anhydrase 7 = Carbonic anhydrase 7 (Homo sapiens, UniProt P43166)
Description: Inhibition of human CA7 by stopped-flow CO2 hydration assay

Carbonic anhydrase 12 = Carbonic anhydrase 12 (Homo sapiens, UniProt O43570)
Chain of Carbonic anhydrase 12 (O43570 whole entry): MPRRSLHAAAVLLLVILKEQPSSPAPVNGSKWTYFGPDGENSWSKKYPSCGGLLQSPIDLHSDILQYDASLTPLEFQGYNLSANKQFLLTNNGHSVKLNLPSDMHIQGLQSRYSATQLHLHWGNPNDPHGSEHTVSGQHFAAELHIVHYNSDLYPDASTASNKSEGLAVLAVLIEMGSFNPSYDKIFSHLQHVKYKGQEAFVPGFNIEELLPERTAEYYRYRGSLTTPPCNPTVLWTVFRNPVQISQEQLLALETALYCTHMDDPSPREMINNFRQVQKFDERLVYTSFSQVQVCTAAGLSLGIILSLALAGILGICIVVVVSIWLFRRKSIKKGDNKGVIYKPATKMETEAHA
Description: Inhibition of human CA12 by stopped-flow CO2 hydration assay

Chain of Carbonic anhydrase 4 (P22748 whole entry): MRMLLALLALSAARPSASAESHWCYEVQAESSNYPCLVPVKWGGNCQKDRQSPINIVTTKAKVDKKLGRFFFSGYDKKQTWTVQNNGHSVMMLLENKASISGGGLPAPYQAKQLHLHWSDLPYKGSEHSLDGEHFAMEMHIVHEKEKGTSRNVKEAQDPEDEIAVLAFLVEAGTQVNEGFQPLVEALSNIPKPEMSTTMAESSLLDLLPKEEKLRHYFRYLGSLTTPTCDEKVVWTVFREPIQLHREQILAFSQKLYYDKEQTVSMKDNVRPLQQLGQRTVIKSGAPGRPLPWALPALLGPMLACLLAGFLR
Chain of Carbonic anhydrase 6 (P23280 whole entry): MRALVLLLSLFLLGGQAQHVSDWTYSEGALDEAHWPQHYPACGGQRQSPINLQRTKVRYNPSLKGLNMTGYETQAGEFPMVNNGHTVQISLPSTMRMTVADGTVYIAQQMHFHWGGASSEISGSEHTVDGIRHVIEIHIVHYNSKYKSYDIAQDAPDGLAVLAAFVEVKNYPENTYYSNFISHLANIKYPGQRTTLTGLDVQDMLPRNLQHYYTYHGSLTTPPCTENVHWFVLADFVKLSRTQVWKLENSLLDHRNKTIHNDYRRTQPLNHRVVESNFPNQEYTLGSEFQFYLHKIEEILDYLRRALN
Chain of Carbonic anhydrase 5A, mitochondrial (P35218 whole entry): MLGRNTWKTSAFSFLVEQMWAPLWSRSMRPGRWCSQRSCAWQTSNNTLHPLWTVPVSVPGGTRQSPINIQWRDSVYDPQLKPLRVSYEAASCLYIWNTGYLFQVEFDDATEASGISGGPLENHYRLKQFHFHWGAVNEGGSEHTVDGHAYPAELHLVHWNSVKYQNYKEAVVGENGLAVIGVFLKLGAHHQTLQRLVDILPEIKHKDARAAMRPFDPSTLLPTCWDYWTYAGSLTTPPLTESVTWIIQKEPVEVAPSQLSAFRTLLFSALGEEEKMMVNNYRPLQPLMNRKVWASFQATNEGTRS
Chain of Carbonic anhydrase 1 (P00915 whole entry): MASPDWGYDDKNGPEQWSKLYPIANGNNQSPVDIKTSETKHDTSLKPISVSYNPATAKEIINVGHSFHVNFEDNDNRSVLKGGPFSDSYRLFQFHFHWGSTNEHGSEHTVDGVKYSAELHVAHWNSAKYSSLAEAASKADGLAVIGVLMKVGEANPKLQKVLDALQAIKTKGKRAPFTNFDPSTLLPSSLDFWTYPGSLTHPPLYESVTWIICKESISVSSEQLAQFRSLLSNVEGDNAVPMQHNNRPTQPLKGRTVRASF
Chain of Carbonic anhydrase 7 (P43166 whole entry): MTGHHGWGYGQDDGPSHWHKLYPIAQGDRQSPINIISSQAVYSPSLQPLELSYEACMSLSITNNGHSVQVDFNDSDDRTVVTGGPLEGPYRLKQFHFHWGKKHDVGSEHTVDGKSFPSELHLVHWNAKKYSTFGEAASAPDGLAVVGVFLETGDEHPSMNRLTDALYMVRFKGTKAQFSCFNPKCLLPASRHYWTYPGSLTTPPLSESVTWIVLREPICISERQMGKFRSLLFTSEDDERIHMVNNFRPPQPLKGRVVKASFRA
Chain of Carbonic anhydrase 3 (P07451 whole entry): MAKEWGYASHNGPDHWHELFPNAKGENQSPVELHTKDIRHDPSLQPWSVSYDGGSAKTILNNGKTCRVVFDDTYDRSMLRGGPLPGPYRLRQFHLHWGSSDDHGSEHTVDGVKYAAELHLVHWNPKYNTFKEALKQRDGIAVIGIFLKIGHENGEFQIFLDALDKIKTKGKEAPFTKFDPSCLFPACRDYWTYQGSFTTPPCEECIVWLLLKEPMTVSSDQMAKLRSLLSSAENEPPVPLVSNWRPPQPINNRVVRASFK
Chain of Carbonic anhydrase 5B, mitochondrial (Q9Y2D0 whole entry): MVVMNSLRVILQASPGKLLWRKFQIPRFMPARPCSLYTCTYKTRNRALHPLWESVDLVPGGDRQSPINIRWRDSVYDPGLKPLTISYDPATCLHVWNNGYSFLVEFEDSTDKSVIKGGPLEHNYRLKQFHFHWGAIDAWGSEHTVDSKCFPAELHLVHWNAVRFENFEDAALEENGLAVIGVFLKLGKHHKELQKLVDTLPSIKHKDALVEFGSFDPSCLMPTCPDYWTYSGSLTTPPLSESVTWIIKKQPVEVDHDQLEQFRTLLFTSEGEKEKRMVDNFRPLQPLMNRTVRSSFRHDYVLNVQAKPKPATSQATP
Chain of Carbonic anhydrase 13 (Q9D6N1 whole entry): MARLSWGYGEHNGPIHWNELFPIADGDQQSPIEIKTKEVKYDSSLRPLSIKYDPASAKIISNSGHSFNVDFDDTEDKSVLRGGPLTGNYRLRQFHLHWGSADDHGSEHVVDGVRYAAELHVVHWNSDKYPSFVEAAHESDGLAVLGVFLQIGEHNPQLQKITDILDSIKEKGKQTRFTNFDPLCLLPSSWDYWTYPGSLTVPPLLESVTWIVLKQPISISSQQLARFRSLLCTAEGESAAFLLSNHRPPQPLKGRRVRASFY
Chain of Carbonic anhydrase 14 (Q9ULX7 whole entry): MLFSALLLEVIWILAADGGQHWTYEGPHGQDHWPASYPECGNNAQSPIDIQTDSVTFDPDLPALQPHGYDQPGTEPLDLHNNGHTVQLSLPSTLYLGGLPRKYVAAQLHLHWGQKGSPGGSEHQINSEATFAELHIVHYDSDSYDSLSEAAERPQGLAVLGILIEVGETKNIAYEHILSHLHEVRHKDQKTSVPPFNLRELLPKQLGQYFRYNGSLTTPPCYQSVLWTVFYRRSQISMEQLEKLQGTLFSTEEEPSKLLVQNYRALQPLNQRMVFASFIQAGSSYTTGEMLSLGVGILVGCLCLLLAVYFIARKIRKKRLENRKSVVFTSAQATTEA

Compound	pKi [1]	pKi (Carbonic anhydrase 9)	pKi (Carbonic anhydrase 2)	pKi (Carbonic anhydrase 1)	pKi (Carbonic anhydrase 4)	pKi (Carbonic anhydrase 14)	pKi (Carbonic anhydrase 13)	pKi (Carbonic anhydrase 6)	pKi (Carbonic anhydrase 3)	pKi [2]	pKi (Carbonic anhydrase 7)	pKi (Carbonic anhydrase 12)
O=c1c(O)c(-c2ccc(O)c(O)c2)oc2cc(O)cc(O)c12 [QUERCETIN]	5.17	5.15	5.60	5.57	5.10	5.27	5.04	5.21	5.09	4.92	5.32	5.03
O=C(O)/C=C/c1ccc(O)cc1 [COUMARIC ACID]	5.22	5.27	6.01	5.97	5.02	5.18	5.00	5.17	5.12	5.11	5.28	5.10
O=c1oc2c(O)c(O)cc3c(=O)oc4c(O)c(O)cc1c4c23 [ELLAGIC ACID]	5.12	5.03		5.63	5.04	5.05	4.99	5.15	4.98	4.90	5.20	5.00
COc1cc(/C=C/C(=O)O)ccc1O [FERULATE]	5.15	5.01	5.62	5.54	4.97	5.03	4.91	5.07	4.95	4.98	5.13	5.01
O=C(O)c1cc(O)c(O)c(O)c1 [GALLIC ACID]	5.39	5.16	5.65	5.49	5.01	5.15	5.01	5.21	5.13	5.00	5.22	5.11
O=C(O)c1ccc(O)cc1 [PARABEN]	5.44	5.43		6.04	5.11	5.21	5.11	5.24	5.18		5.39	5.20
COc1cc(C(=O)O)cc(OC)c1O [SYRINGIC ACID]	5.20	5.09	5.50	5.38	4.97	5.04	4.96	5.12	5.07	4.45	5.11	5.05
